In patent US20110318741A1, “BIOMARKERS FOR THE TREATMENT OF PSORIASIS” (priority 2010, published 2011):

System: psoriasis lesional skin
Assay: Histological analysis (immunohistochemistry, H&E) of skin biopsies from psoriasis patients in a clinical trial
Format: in vivo, human
Conditions: for CD56 in Epidermis: Biopsy Parameters Median Change (%) / Langerin in Dermis: Biopsy Parameters Median Change (%) / CD11c in Epidermis: Biopsy Parameters Median Change (%) / CD3 in Dermis: Biopsy Parameters Median Change (%) / CD3 in Epidermis: Biopsy Parameters Median Change (%) / Thickness: Biopsy Parameters Median Change (%) / CD11c in Dermis: Biopsy Parameters Median Change (%) / CD56 in Dermis: Biopsy Parameters Median Change (%) / Langerin in Epidermis: Biopsy Parameters Median Change (%): subjects also with PASI values
Experimental: Skin biopsies were evaluated on 20 patients in a clinical trial, where 20 mg of (S)—N-(2-(1-(3-ethoxy-4-methoxyphenyl)-2-(methylsulfonyl)ethyl)-1,3-dioxoisoindolin-4-yl)acetamide was administered b.i.d. to patients with psoriasis. Skin biopsies were done 4 weeks and 12 weeks post-treatment.
The biopsies were subjected to a histological analysis in which response was assessed in H&E stained sections of skin biopsies and after staining frozen sections of skin biopsies with antibodies to keratin 16. CD3, CD11c. ICAM-1. Langerin, CD56, Foxp3, and HLA-DR. This analysis thus included an assessment of epidermal growth/differentiation, skin infiltration by T-cells and DC subsets, presence of regulatory T-cells, and presence of inflammation-regulating molecules in skin lesions.
The pharmacodynamic effects of (S)—N-(2-(1-(3-ethoxy-4-methoxyphenyl)-2-(methylsulfonyl)ethyl)-1,3-dioxoisoindolin-4-yl)acetamide were studied in skin biopsies from subjects treated with the compound in a phase 2, multi-center, open-label study evaluating the safety, tolerability, and efficacy of the compound in recalcitrant psoriasis vulgaris. Skin biopsies were taken from uninvolved and involved skin at baseline, and from involved skin after treatment with (S)—N-(2-(1-(3-ethoxy-4-methoxyphenyl)-2-(methylsulfonyl)ethyl)-1,3-dioxoisoindolin-4-yl)acetamide 20 mg BID after 4 and 12 weeks.
Skin biopsies were evaluated on 20 patients in this trial. The biopsies were analyzed by immunohistochemistry for a set of cellular markers (keratin 16, CD3. CD11c. ICAM-1, Langerin, CD56, Foxp3, and HLA-DR) to assess epidermal growth/differentiation, skin infiltration by T-cells and dendritic cells (DC), presence of regulatory T-cells, and the presence of inflammation-regulating molecules in skin lesions.

## CCOc1cc([C@@H](CS(C)(=O)=O)N2C(=O)c3cccc(NC(C)=O)c3C2=O)ccc1OC [(S)—N-(2-(1-(3-ethoxy-4-methoxyphenyl)-2-(methylsulfonyl)ethyl)-1,3-dioxoisoindolin-4-yl)acetamide]
20 mg BID
  CD3+ T cells in the epidermis and dermis: significant reductions
  CD56+ NK cells in the epidermis: significant reductions
Week 4, 20 mg BID, No. 16
  CD56 in Epidermis: Biopsy Parameters Median Change (%): −75.6%
Week 4, 20 mg BID, No. 17
  Langerin in Dermis: Biopsy Parameters Median Change (%): −50.0%
Week 4, 20 mg BID, No. 18
  CD11c in Epidermis: Biopsy Parameters Median Change (%): −73.1%
Week 4, 20 mg BID, No. 19
  CD3 in Dermis: Biopsy Parameters Median Change (%): −24.5%
  CD3 in Epidermis: Biopsy Parameters Median Change (%): −35.0%
  Thickness: Biopsy Parameters Median Change (%): −22.9%
Week 4, 20 mg BID, No. 20
  CD11c in Dermis: Biopsy Parameters Median Change (%): −45.8%
  CD56 in Dermis: Biopsy Parameters Median Change (%): −27.6%
  Langerin in Epidermis: Biopsy Parameters Median Change (%): 9.49%
Week 4, 20 mg b.i.d.
  CD3 T cells in Dermis: Median % change from baseline: −24.5%
  CD3 T cells in Epidermis: Median % change from baseline: −35.0%
  CD11c myeloid DC in Dermis: Median % change from baseline: −45.8%
  CD11c myeloid DC in Epidermis: Median % change from baseline: −73.1%
  CD56 NK cells in Dermis: Median % change from baseline: −27.6%
  CD56 NK cells in Epidermis: Median % change from baseline: −75.6%
  Epidermal Thickness: Median % change from baseline: −22.9%
  Langerin in Dermis: Median % change from baseline: −50.0%
  Langerin in Epidermis: Median % change from baseline: 9.5%
  reduction of epidermal CD11c+ infiltrates: 73%
Week 12, 20 mg BID, No. 12
  CD56 in Epidermis: Biopsy Parameters Median Change (%): −77.6%
  Langerin in Dermis: Biopsy Parameters Median Change (%): −67.0%
Week 12, 20 mg BID, No. 13
  CD11c in Epidermis: Biopsy Parameters Median Change (%): −97.5%
Week 12, 20 mg BID, No. 14
  CD11c in Dermis: Biopsy Parameters Median Change (%): −56.0%
  Thickness: Biopsy Parameters Median Change (%): −34.8%
Week 12, 20 mg BID, No. 15
  CD3 in Dermis: Biopsy Parameters Median Change (%): −63.1%
  CD3 in Epidermis: Biopsy Parameters Median Change (%): −56.1%
  CD56 in Dermis: Biopsy Parameters Median Change (%): −18.2%
  Langerin in Epidermis: Biopsy Parameters Median Change (%): 41.67%
Week 12, 20 mg b.i.d.
  CD3 T cells in Dermis: Median % change from baseline: −62.0%
  CD3 T cells in Epidermis: Median % change from baseline: −47.4%
  CD11c myeloid DC in Dermis: Median % change from baseline: −54.6%
  CD11c myeloid DC in Epidermis: Median % change from baseline: −88.6%
  CD56 NK cells in Dermis: Median % change from baseline: −12.5%
  CD56 NK cells in Epidermis: Median % change from baseline: −73.3%
  Epidermal Thickness: Median % change from baseline: −34.3%
  Langerin in Dermis: Median % change from baseline: −57.9%
  Langerin in Epidermis: Median % change from baseline: 17.1%
  reduction of epidermal CD11c+ infiltrates: 84%
Day 29, of the 20 cases analyzed, 20 mg b.i.d.
  cases showing improvement in psoriasis (reduction in epidermal hyperplasia and/or keratin 16 staining): 10 cases
Day 29 and day 85 biopsies, overall reductions not statistically significant
  T-cells in biopsies: reductions
Day 85, 20 mg b.i.d.
  median reduction in epidermal thickness: 34%
Day 85 biopsies
  epidermal Langerhan's cells: small increase
Day 85 biopsies, 20 mg b.i.d.
  cases showing absence of keratin 16 staining: 5 cases
Day 85 biopsies, of the 20 cases analyzed, 20 mg b.i.d.
  cases showing disease improvement: Nine
During treatment, between week 4 and week 12
  CD56+ cells (NK cells or NK-T-cells): minimally altered
Epidermis and dermis, week 4 and week 12, 20 mg BID
  inflammatory myeloid CD11c+ DCs (TIP-DCs): major reduction
Not statistically significant, not elevated in the dermis, 20 mg BID
  Langerin in the epidermis: slightly elevated
responders: change in PASI of 75% or more at week 12
  reductions in cellular infiltrates in epidermis and dermis, responders vs non-responders: greater among responders
Week 4, all measured values of thickness, 20 mg b.i.d.
  reduction in epidermal thickness: 23%
